# What was measured:
# [1] = hygroscopicity of the crystalline salt; assay type: physicochemical
# [2] = solubility profile of the crystalline salt; assay type: physicochemical
substance,measurement,setting,value
"tris(hydroxymethyl)methylammonium (E)-7-[4-(4-fluorophenyl)-6-isopropyl-2-[methyl(methylsulfonyl)amino]pyrimidin-5-yl]-(3R,5S)-3,5-dihydroxyhept-6-enoate [Example 2]",hygroscopicity,[1],non-hygroscopic
same,solubility profile,[2],advantageous solubility profile

# Source: patent US7129352B2, “Crystalline salts of 7-′4-(4-fluorophenyl) -6-isopropyl-2-′methyl (methylsulfonyl) amino!pyrimidin-5-yl!- (3R, 5S) -3, 5-dihydroxyhept-6-enoic acid” (AstraZeneca AB, priority 2000, dated 2006)
